Data as given in patent US5747484A, “Crystalline cepham acid addition salts and processes for their preparation” (Hoechst Aktiengesellschaft, priority 1994, dated 1998).
Counter-ions that a name gives are not always drawn.

Conditions: bovine, in vivo, im, 5 mg/kg
Description: The terminal half-lives (t1/2) after single injection (i.m.) of 5 mg of betaine VI (n=2) per kg of body weight for cattle are summarized in Table 1 for compounds according to the invention. […] The known salts sulfate and dihydroiodide from DE 3 706 020 are used as a standard.

SMILES | Terminal half-lives (t1/2) [h]
CO/N=C(\C(=O)N[C@@H]1C(=O)N2C(C(=O)[O-])=C(C[n+]3cccc4c3CCCC4)CS[C@H]12)c1csc(N)n1 [Dihydroiodide, reference compound] | 4.19
CO/N=C(\C(=O)N[C@@H]1C(=O)N2C(C(=O)[O-])=C(C[n+]3cccc4c3CCCC4)CS[C@H]12)c1csc(N)n1 [Example 1, Cefquinome-6-hydroxy-1-naphthoate] | 9.20
CO/N=C(\C(=O)N[C@@H]1C(=O)N2C(C(=O)[O-])=C(C[n+]3cccc4c3CCCC4)CS[C@H]12)c1csc(N)n1 [Example 2] | 18.8
CO/N=C(\C(=O)N[C@@H]1C(=O)N2C(C(=O)[O-])=C(C[n+]3cccc4c3CCCC4)CS[C@H]12)c1csc(N)n1 [Example 6] | 5.87
CO/N=C(\C(=O)N[C@@H]1C(=O)N2C(C(=O)[O-])=C(C[n+]3cccc4c3CCCC4)CS[C@H]12)c1csc(N)n1 [Example 9] | 15.6
CO/N=C(\C(=O)N[C@@H]1C(=O)N2C(C(=O)[O-])=C(C[n+]3cccc4c3CCCC4)CS[C@H]12)c1csc(N)n1 [Example 11, cefquinome-2,4-dihydroxybenzoate] | 16.20
CO/N=C(\C(=O)N[C@@H]1C(=O)N2C(C(=O)[O-])=C(C[n+]3cccc4c3CCCC4)CS[C@H]12)c1csc(N)n1 [Example 12] | 15.20
CO/N=C(\C(=O)N[C@@H]1C(=O)N2C(C(=O)[O-])=C(C[n+]3cccc4c3CCCC4)CS[C@H]12)c1csc(N)n1 [Example 13] | 9.21
CO/N=C(\C(=O)N[C@@H]1C(=O)N2C(C(=O)[O-])=C(C[n+]3cccc4c3CCCC4)CS[C@H]12)c1csc(N)n1 [Example 15] | 11.1
CO/N=C(\C(=O)N[C@@H]1C(=O)N2C(C(=O)[O-])=C(C[n+]3cccc4c3CCCC4)CS[C@H]12)c1csc(N)n1 [Example 16] | 9.16
CO/N=C(\C(=O)N[C@@H]1C(=O)N2C(C(=O)[O-])=C(C[n+]3cccc4c3CCCC4)CS[C@H]12)c1csc(N)n1 [Example 17] | 17.8
CO/N=C(\C(=O)N[C@@H]1C(=O)N2C(C(=O)[O-])=C(C[n+]3cccc4c3CCCC4)CS[C@H]12)c1csc(N)n1 [Example 18] | 13.00
CO/N=C(\C(=O)N[C@@H]1C(=O)N2C(C(=O)[O-])=C(C[n+]3cccc4c3CCCC4)CS[C@H]12)c1csc(N)n1 [Example 19] | 7.07
CO/N=C(\C(=O)N[C@@H]1C(=O)N2C(C(=O)[O-])=C(C[n+]3cccc4c3CCCC4)CS[C@H]12)c1csc(N)n1 [Example 20] | 9.39
CO/N=C(\C(=O)N[C@@H]1C(=O)N2C(C(=O)[O-])=C(C[n+]3cccc4c3CCCC4)CS[C@H]12)c1csc(N)n1 [Example 21] | 9.96
CO/N=C(\C(=O)N[C@@H]1C(=O)N2C(C(=O)[O-])=C(C[n+]3cccc4c3CCCC4)CS[C@H]12)c1csc(N)n1 [Example 22] | 8.77
CO/N=C(\C(=O)N[C@@H]1C(=O)N2C(C(=O)[O-])=C(C[n+]3cccc4c3CCCC4)CS[C@H]12)c1csc(N)n1 [Example 23] | 12.70
CO/N=C(\C(=O)N[C@@H]1C(=O)N2C(C(=O)[O-])=C(C[n+]3cccc4c3CCCC4)CS[C@H]12)c1csc(N)n1 [Sulfate, cefquinome sulfate, reference compound] | 2.15
